The values below come from patent US20250263408A1 (Uniquest Pty Ltd, priority 2022, published 2025).

The test system of test [1] is Ba/F3-WT (wild type) cells. Nature of the test: Ba/F3 Proliferation Assay, Ba/F3-WT (wild type) cells with mIL-3 (Resazurin). It counts as cell-based. Conditions: Mus musculus, BaF3, 48 h, Ba/F3-WT cells +mIL-3, 48-hour incubation. In general terms: Resazurin is reduced to fluorescent resorufin, in cell work by metabolically active cells.
The target in a further test is T1, Ba/F3-Syk cells (Homo sapiens, UniProt P43405).
T1 construct: fused on or other part: Possible but unprinted fusion partner: TEL (ETV6), the usual partner for Ba/F3 lines transformed by Syk; Nothing on a partner is printed
Nature of the test: Ba/F3 Proliferation Assay, Ba/F3-Syk cells (Resazurin). It counts as cell-based. Conditions: 48-hour incubation.

Regarding `Cn1ccc(-c2cc3ncccc3c(OC[C@@H]3CN[C@@H]4C[C@@H]4O3)n2)c1` (relative stereo) [Compound 2.71, 7-(1-methyl-1H-pyrrol-3-yl)-5-{[(rel-1S,3S,6R)-2-oxa-5-azabicyclo[4.1.0]heptan-3-yl]methoxy}-1,6-naphthyridine], the EC50 (as a rule, the concentration needed to bring the measured effect to its halfway point) was over 10000 nM in test [1] and 1330 nM at Ba/F3-Syk cells.
`CC1(C)CNC[C@@H](COc2cc(-c3cnn(CC(F)F)c3)cc3ncccc23)O1` [Compound 3.12, 7-[1-(2,2-difluoroethyl)-1H-pyrazol-4-yl]-5-{[(2S)-6,6-dimethylmorpholin-2-yl]methoxy}quinoline]: the results for the EC50 (in test [1]; on Ba/F3-Syk cells) were 1680 nM and 87 nM, respectively.
Taken in the same sequence, the figures for `FC(F)Cn1cc(-c2cc3ncccc3c(OC[C@@H]3CNCCCO3)n2)cn1` [Compound 6.27, 7-[1-(2,2-difluoroethyl)-1H-pyrazol-4-yl]-5-{[(2S)-1,4-oxazepan-2-yl]methoxy}-1,6-naphthyridine] were 5590 nM and 52.2 nM.
Taken in the same sequence, the figures for `CC1(C)CNC[C@@H](COc2nc(-c3cnn(CC4CC(F)(F)C4)c3)cc3ncccc23)O1` [Compound 6.38, 7-{1-[(3,3-difluorocyclobutyl)methyl]-1H-pyrazol-4-yl}-5-{[(2S)-6,6-dimethylmorpholin-2-yl]methoxy}-1,6-naphthyridine] were 972 nM and 25.9 nM.
The corresponding values for `C[C@@H]1O[C@@H](COc2nc(-c3cnn(C(C)(C)C)c3)cc3ncccc23)CN[C@@H]1C` (racemic) [Compound 2.80, 7-(1-tert-butyl-1H-pyrazol-4-yl)-5-{[rel-(2S,5S,6R)-5,6-dimethylmorpholin-2-yl]methoxy}-1,6-naphthyridine] are 1600 nM and 36 nM.
`C1=C(c2cc(OC[C@@H]3CNCCO3)c3cccnc3c2)CCC1` [Compound 11.1, 7-(cyclopent-1-en-1-yl)-5-{[(2S)-morpholin-2-yl]methoxy}quinoline]: the EC50 in test [1] was over 10000 nM; at Ba/F3-Syk cells it was 1360 nM.
Taken in the same sequence, the figures for `CC(C)n1cc(-c2cc3ncccc3c(OC[C@H]3OCCN[C@H]3C)n2)cn1` [Compound 2.96, 5-{[(2S,3S)-3-methylmorpholin-2-yl]methoxy}-7-[1-(propan-2-yl)-1H-pyrazol-4-yl]-1,6-naphthyridine] were 724 nM and 20.1 nM.
The corresponding values for `Cn1ccc(-c2cc3ncccc3c(OC[C@@H]3CNCCO3)n2)n1` [Compound 2.31, 7-(1-methyl-1H-pyrazol-3-yl)-5-{[(2S)-morpholin-2-yl]methoxy}-1,6-naphthyridine] are over 10000 nM and 1740 nM.
Taken in the same sequence, the figures for `CC1(C)CNC[C@@H](COc2nc(-c3cnn(CC4CC4)c3)cc3ncccc23)O1` [Compound 6.21, 7-[1-(cyclopropylmethyl)-1H-pyrazol-4-yl]-5-{[(2S)-6,6-dimethylmorpholin-2-yl]methoxy}-1,6-naphthyridine] were 1510 nM and 12.6 nM.
Turning to `Cc1noc(C)c1-c1cc2ncccc2c(OC[C@@H]2CNCCO2)n1` [Compound 2.14, 7-(3,5-dimethyl-1,2-oxazol-4-yl)-5-{[(2S)-morpholin-2-yl]methoxy}-1,6-naphthyridine], the EC50 in test [1] came out at 4830 nM; on Ba/F3-Syk cells, 3620 nM.
In the case of `CCn1ccc(-c2cc(O[C@H](C)[C@@H]3CNCCO3)c3cccnc3c2)c1` [Compound 7.18, 7-(1-ethyl-1H-pyrrol-3-yl)-5-[(1R)-1-[(2S)-morpholin-2-yl]ethoxy]quinoline], the figures for the EC50 (in test [1]; on Ba/F3-Syk cells) were 1750 nM and 53.7 nM, respectively.
Taken in the same sequence, the figures for `C[C@@H](Oc1nc(-c2ccn(C(C)(C)C)c2)cc2ncccc12)[C@@H]1CNCCO1` [Compound 2.68, 7-(1-tert-butyl-1H-pyrrol-3-yl)-5-[(1R)-1-[(2S)-morpholin-2-yl]ethoxy]-1,6-naphthyridine] were 4370 nM and 13.9 nM.
The corresponding values for `CC(C)(C)n1cc(-c2cc3ncccc3c(OC[C@H]3CNCCCO3)n2)cn1` [Compound 2.59, 7-(1-tert-butyl-1H-pyrazol-4-yl)-5-{[(2R)-1,4-oxazepan-2-yl]methoxy}-1,6-naphthyridine] are 985 nM and 58.9 nM.
The corresponding values for `Cn1cc(-c2cc(OC[C@@H]3CNCCO3)c3cncnc3c2)cn1` [Compound 4.1, 7-(1-methyl-1H-pyrazol-4-yl)-5-{[(2S)-morpholin-2-yl]methoxy} quinazoline] are 7430 nM and 2320 nM.
For `CC(C)(C)c1ccc(-c2cc(OC[C@@H]3CNCCO3)c3cccnc3c2)s1` [Compound 14.5, 7-(5-tert-butylthiophen-2-yl)-5-{[(2S)-morpholin-2-yl]methoxy}quinoline], the EC50 in test [1] is 1200 nM; at Ba/F3-Syk cells, 428 nM.
Take `C[C@@H](Oc1nc(-c2cnn(C)c2)cc2ncccc12)[C@@H]1CNCC(C)(C)O1` [Compound 2.83, 5-[(1R)-1-[(2S)-6,6-dimethylmorpholin-2-yl]ethoxy]-7-(1-methyl-1H-pyrazol-4-yl)-1,6-naphthyridine]: the EC50 in test [1] worked out at 1650 nM; on Ba/F3-Syk cells, 34.2 nM.
For the compound `CC(C)n1ccc(-c2cc(OC[C@@H]3CNCCO3)c3cccnc3c2)c1` [Compound 7.1, 5-{[(2S)-morpholin-2-yl]methoxy}-7-[1-(propan-2-yl)-1H-pyrrol-3-yl]quinoline], the EC50 came out at 2780 nM in test [1] and 47.9 nM on Ba/F3-Syk cells.
Taken in the same sequence, the figures for `Cn1cc(-c2cc3ncccc3c(O[C@@H]([C@@H]3CNCCO3)C(F)(F)F)n2)cn1` [Compound 10.5, 7-(1-methyl-1H-pyrazol-4-yl)-5-[(1S)-2,2,2-trifluoro-1-[(2S)-morpholin-2-yl]ethoxy]-1,6-naphthyridine] were 3280 nM and 798 nM.
With `c1cnc2cc(-c3cnn(CC4CC4)c3)nc(OC[C@@H]3CNCCO3)c2c1` [Compound 6.12, 7-[1-(cyclopropylmethyl)-1H-pyrazol-4-yl]-5-{[(2S)-morpholin-2-yl]methoxy}-1,6-naphthyridine], the EC50 was 994 nM in test [1] and 66.7 nM on Ba/F3-Syk cells.
Taken in the same sequence, the figures for `C[C@H](Oc1cc(-c2cnn(C(C)(C)C)c2)cc2ncccc12)[C@@H]1CNCCO1` [Compound 14.1, 7-(1-tert-butyl-1H-pyrazol-4-yl)-5-[(1S)-1-[(2S)-morpholin-2-yl]ethoxy]quinoline] were over 10000 nM and 1340 nM.
`Cc1ncc(-c2cc3ncccc3c(OC[C@@H]3CNCCO3)n2)s1` [Compound 2.30, 7-(2-methyl-1,3-thiazol-5-yl)-5-{[(2S)-morpholin-2-yl]methoxy}-1,6-naphthyridine]: the EC50 in test [1] was found to be 6970 nM; at Ba/F3-Syk cells, 206 nM.
The corresponding values for `CC(C)n1ccc(-c2cc(O[C@H](C)[C@@H]3CNCC(C)(C)O3)c3nccnc3c2)c1` [Compound 8.11, 5-[(1R)-1-[(2S)-6,6-dimethylmorpholin-2-yl]ethoxy]-7-[1-(propan-2-yl)-1H-pyrrol-3-yl]quinoxaline] are 625 nM and 6.32 nM.
The corresponding values for `CC1(C)CNC[C@@H](COc2nc(-c3ccn(CC4CC4)c3)cc3ncccc23)O1` [Compound 6.15, 7-[1-(cyclopropylmethyl)-1H-pyrrol-3-yl]-5-{[(2S)-6,6-dimethylmorpholin-2-yl]methoxy}-1,6-naphthyridine] are 2340 nM and 20.3 nM.
